From US20110014273A1, “Method of Treating BCC” (priority 2009, published 2011)
Converted amounts (≈) assume the structure as drawn.

Columns and labels:
B. cepacia ATCC 25608 [1] = assay: Susceptibility testing (MIC at 35° C.); assay type: cell-based; settings: Burkholderia cepacia, ATCC25608
Experimental: (§1) From a previous susceptibility testing experiment, the liposomal test batches and control tobramycin MIC values are shown in Table 5 below. The time-kill test is conducted using the test agents shown in bold print in Table 5: [table]

P. aeruginosa ATCC 27853 [2] = assay: Susceptibility testing (MIC at 35° C.); assay type: cell-based; settings: Pseudomonas aeruginosa, ATCC27853
Experimental: as §1

P. aeruginosa MMX 1609 [3] = assay: Susceptibility testing (MIC at 35° C.); assay type: cell-based; settings: Pseudomonas aeruginosa, MMX1609
Experimental: as §1

B. cepacia ATCC 25608 [4] = settings: at 35° C.; cited from earlier work
P. aeruginosa MMX 1609 [5] = settings: at 35° C.; cited from earlier work
P. aeruginosa ATCC 27853 [6] = settings: at 35° C.; cited from earlier work

MIC (B. cepacia ATCC 25608 [1]) [µg/mL]	MIC (P. aeruginosa ATCC 27853 [2]) [µg/mL]	MIC (P. aeruginosa MMX 1609 [3]) [µg/mL]	SMILES	MIC, CLSI QC range (B. cepacia ATCC 25608 [4])	MIC, CLSI QC range (P. aeruginosa MMX 1609 [5])	MIC, CLSI QC range (P. aeruginosa ATCC 27853 [6]) [µg/mL]
> 64	0.5 (≈ 1.07 µM)	0.5 (≈ 1.07 µM)	NC[C@H]1O[C@H](O[C@H]2[C@H](O)[C@@H](O[C@H]3O[C@H](CO)[C@@H](O)[C@H](N)[C@H]3O)[C@H](N)C[C@@H]2N)[C@H](N)C[C@@H]1O [Free tobramycin (Sigma), tobramycin]	–	–	–
–	–	–	NC[C@H]1O[C@H](O[C@H]2[C@H](O)[C@@H](O[C@H]3O[C@H](CO)[C@@H](O)[C@H](N)[C@H]3O)[C@H](N)C[C@@H]2N)[C@H](N)C[C@@H]1O [tobramycin]	(0.12-1) μg/mL	(0.25-1) μg/mL	0.25 to 1
